Laboratory results from publication PMC7037546, “High Cell Selectivity and Bactericidal Mechanism of Symmetric Peptides Centered on D-Pro–Gly Pairs” (International Journal of Molecular Sciences, 2020).
Converted amounts (≈) assume the structure as drawn. Non-standard residues stand in square brackets, D forms with d. Residues, ends and D or L forms follow the SMILES beside them.

What was measured:
[1] = system: Escherichia coli ATCC25922; test: microbe, parasite or virus in culture; conditions: ATCC25922, 16 h
Protocol: (§1) The antimicrobial activity of the designed peptides was examined using the micro-dilution method described previously. The bacteria were cultured for 16 h in MHB at 37 °C, and the microbial suspension was diluted to a final concentration of 10^5 colony-forming units (CFU)/mL. Then, 50 µL of MHB containing different concentrations peptides (0.25–256 µM) was mixed with 50 µL of bacterial solution, and the mixture was added to a 96-well plate. […] The assays were performed three times.

E. coli K88 = conditions: micro-dilution in MHB, 10^5 CFU/mL, 16 h, OD 492 nm, performed three times
Protocol: as §1

[2] = system: Enterococcus faecalis ATCC29212; conditions: ATCC29212, 16 h
Protocol: as §1

Gram-negative bacteria = conditions: 16 h
Protocol: as §1

[3] = system: Klebsiella pneumonia CMCC46117; conditions: CMCC46117, 16 h
Protocol: as §1

[4] = system: Pseudomonas aeruginosa ATCC27853; conditions: ATCC27853, 16 h
Protocol: as §1

S. aureus ATCC29213 = conditions: ATCC29213, 16 h
Protocol: as §1

[5] = system: Salmonella Pullorum NCTC5776; conditions: NCTC5776, 16 h
Protocol: as §1

[6] = system: Staphylococcus aureus ATCC25923; conditions: ATCC25923, 16 h
Protocol: as §1

[7] = system: methicillin-resistant S. aureus ATCC43300; conditions: ATCC43300, 16 h
Protocol: as §1

Gram-positive bacteria = test: Geometric mean of MICs and therapeutic index, Gram (+); type: cell-based; conditions: geometric mean over the Gram-positive strains of Table 2; 256 μM used when no activity at 128 μM
Protocol: as §1

RAW 264.7 cells = test: Cytotoxicity, CCK-8 assay; type: cell-based, murine; conditions: 64 μM peptide, 16 h, CCK-8, OD 450 nm
Protocol: (§2) The cytotoxicity was detected according to a CCK-8 assay as described previously. Briefly, RAW 264.7 and HEK293T cells were placed into 96-well plates at a density of 1.0–2.0 × 10^5, and then cultured for 16 h under conditions of 5% CO2. Then, two-fold diluted peptides in DMEM were added to the plates. After 16 h of culturing, CCK-8 (10%, v/v) was put into each well containing cell culture, and mixtures were cultured for 2 h. The cytotoxicity assay was examined by measuring the OD of the mixtures at 450 nm (Microplate reader, TECAN GENios F129004, Tecan, Salzburg, Austria). The assays were performed three times.

HEK293T cells = test: Cytotoxicity, CCK-8 assay; type: cell-based, human; conditions: 64 μM peptide, 16 h, CCK-8, OD 450 nm
Protocol: as §2

E. coli ATCC25922 = type: cell-based, Escherichia coli; conditions: for MIC after pH treatment, pH 4 / MIC after pH treatment, pH 6 / MIC after pH treatment, pH 8 / MIC after pH treatment, pH 10: ATCC25922, 1 h; for MIC after temperature treatment, 0 °C / MIC after temperature treatment, 37 °C / MIC after temperature treatment, 100 °C / MIC in the presence of FeCl3 / MIC in the presence of KCl / MIC in the presence of MgCl2 / MIC in the presence of NH4Cl / MIC in the presence of NaCl / MIC in the presence of ZnCl2 / MIC, Control / MIC, Control (pH 7): ATCC25922, 16 h
Protocol: as §1
The salt, temperature, and pH sensitivities of designed peptides were determined by MIC assay as described previously. For the salt sensitivity assay, peptides were diluted in deionized water containing different salts, and mixed with E. coli ATCC25922 (10^5 CFU/mL). The final physiological concentrations of different salts were as follows: 150 mM NaCl, 4.5 mM KCl, 6 μM NH4Cl, 1 mM MgCl2, 8 μM ZnCl2, and 4 μM FeCl3. For temperature sensitivity, peptides were cooled on ice for 10 min, and incubated at 37 °C and 100 °C for 30 min. For pH sensitivity, peptides were treated with different pH for 1 h. Briefly, peptides were diluted in deionized water, and the pH of the solution was adjusted to 4.0, 6.0, 8.0, and 10.0 with HCl or NaOH. The subsequent steps were the same as for the MIC measurements. These tests were performed three times.

| SMILES | MIC [1] | MIC (E. coli K88) | MIC [2] | GM (geometric mean of MICs), Gram (−) (Gram-negative bacteria) | MIC [3] | MIC [4] | MIC (S. aureus ATCC29213) | MIC [5] | MIC [6] | MIC [7] | GM (geometric mean of MICs), Gram (+) (Gram-positive bacteria) | cell survival rate (RAW 264.7 cells) | cell survival rate (HEK293T cells) | MIC after pH treatment, pH 4 (E. coli ATCC25922) | MIC after pH treatment, pH 6 (E. coli ATCC25922) | MIC after pH treatment, pH 8 (E. coli ATCC25922) | MIC after pH treatment, pH 10 (E. coli ATCC25922) | MIC after temperature treatment, 0 °C (E. coli ATCC25922) | MIC after temperature treatment, 37 °C (E. coli ATCC25922) | MIC ([1]; Escherichia coli) | further results |
| --- | --- | --- | --- | --- | --- | --- | --- | --- | --- | --- | --- | --- | --- | --- | --- | --- | --- | --- | --- | --- | --- |
| N=C(N)NCCC[C@H](NC(=O)CNC(=O)[C@H]1CCCN1C(=O)[C@H](CCCNC(=N)N)NC(=O)[C@H](CCCNC(=N)N)NC(=O)[C@H](Cc1ccccc1)NC(=O)[C@H](Cc1ccccc1)NC(=O)[C@H](CCCNC(=N)N)NC(=O)[C@H](Cc1ccccc1)NC(=O)[C@@H](N)Cc1ccccc1)C(=O)N[C@@H](CCCNC(=N)N)C(=O)N[C@@H](Cc1ccccc1)C(=O)N[C@@H](Cc1ccccc1)C(=O)N[C@@H](CCCNC(=N)N)C(=O)N[C@@H](Cc1ccccc1)C(=O)N[C@@H](Cc1ccccc1)C(N)=O [FRpG] (H-FFRFFRR[dP]GRRFFRFF-NH2) | 8 µM (≈ 18.3 µg/mL) | 8 µM (≈ 18.3 µg/mL) | 32 µM (≈ 73.1 µg/mL) | 13.9 µM | 16 µM (≈ 36.6 µg/mL) | 32 µM (≈ 73.1 µg/mL) | 16 µM (≈ 36.6 µg/mL) | 16 µM (≈ 36.6 µg/mL) | 16 µM (≈ 36.6 µg/mL) | 32 µM (≈ 73.1 µg/mL) | 22.6 µM | 78% | 85% | 16 µM | 8 µM | 8 µM | 32 µM | 8 µM (≈ 18.3 µg/mL) | 8 µM (≈ 18.3 µg/mL) |  | MIC after temperature treatment, 100 °C (E. coli ATCC25922): 8 µM (≈ 18.3 µg/mL); MIC in the presence of FeCl3 (E. coli ATCC25922): 8 µM; MIC in the presence of KCl (E. coli ATCC25922): 8 µM; MIC in the presence of MgCl2 (E. coli ATCC25922): 8 µM; MIC in the presence of NH4Cl (E. coli ATCC25922): 8 µM; MIC in the presence of NaCl (E. coli ATCC25922): 32 µM; MIC in the presence of ZnCl2 (E. coli ATCC25922): 8 µM; MIC, Control (E. coli ATCC25922): 8 µM (≈ 18.3 µg/mL); MIC, Control (pH 7) (E. coli ATCC25922): 8 µM |
| CC[C@H](C)[C@H](N)C(=O)N[C@H](C(=O)N[C@@H](CCCNC(=N)N)C(=O)N[C@H](C(=O)N[C@H](C(=O)N[C@@H](CCCNC(=N)N)C(=O)N[C@@H](CCCNC(=N)N)C(=O)N1CCC[C@@H]1C(=O)NCC(=O)N[C@@H](CCCNC(=N)N)C(=O)N[C@@H](CCCNC(=N)N)C(=O)N[C@H](C(=O)N[C@H](C(=O)N[C@@H](CCCNC(=N)N)C(=O)N[C@H](C(=O)N[C@H](C(N)=O)[C@@H](C)CC)[C@@H](C)CC)[C@@H](C)CC)[C@@H](C)CC)[C@@H](C)CC)[C@@H](C)CC)[C@@H](C)CC [IRpG] (H-IIRIIRR[dP]GRRIIRII-NH2) | 4 µM (≈ 8.05 µg/mL) | 16 µM (≈ 32.2 µg/mL) | >128 µM | 16 µM | 32 µM (≈ 64.4 µg/mL) | 32 µM (≈ 64.4 µg/mL) | >128 µM | 16 µM (≈ 32.2 µg/mL) | >128 µM | >128 µM | 256 µM | 98% | 98% | 16 µM | 4 µM | 8 µM | 16 µM | 4 µM (≈ 8.05 µg/mL) | 4 µM (≈ 8.05 µg/mL) |  | MIC after temperature treatment, 100 °C (E. coli ATCC25922): 4 µM (≈ 8.05 µg/mL); MIC in the presence of FeCl3 (E. coli ATCC25922): 4 µM; MIC in the presence of KCl (E. coli ATCC25922): 4 µM; MIC in the presence of MgCl2 (E. coli ATCC25922): 8 µM; MIC in the presence of NH4Cl (E. coli ATCC25922): 4 µM; MIC in the presence of NaCl (E. coli ATCC25922): 32 µM; MIC in the presence of ZnCl2 (E. coli ATCC25922): 4 µM; MIC, Control (E. coli ATCC25922): 4 µM (≈ 8.05 µg/mL); MIC, Control (pH 7) (E. coli ATCC25922): 4 µM |
| CC(C)C[C@H](NC(=O)CN)C(=O)N[C@@H](CCCNC(=N)N)C(=O)N[C@@H](CC(C)C)C(=O)N[C@@H](CC(C)C)C(=O)N[C@@H](CCCNC(=N)N)C(=O)N[C@@H](CCCNC(=N)N)C(=O)N[C@@H](CC(C)C)C(=O)N[C@@H](CC(C)C)C(=O)N[C@@H](CCCNC(=N)N)C(=O)N[C@@H](CCCNC(=N)N)C(=O)N[C@@H](CC(C)C)C(=O)N[C@@H](CC(C)C)C(=O)N[C@@H](CCCNC(=N)N)C(=O)N[C@@H](CC(C)C)C(=O)N1CCC[C@@H]1C(N)=O [LRα] (H-GLRLLRRLLRRLLRL[dP]-NH2) | 2 µM (≈ 4.03 µg/mL) | 4 µM (≈ 8.05 µg/mL) | 16 µM (≈ 32.2 µg/mL) | 3 µM | 4 µM (≈ 8.05 µg/mL) | 4 µM (≈ 8.05 µg/mL) | 8 µM (≈ 16.1 µg/mL) | 2 µM (≈ 4.03 µg/mL) | 4 µM (≈ 8.05 µg/mL) | 8 µM (≈ 16.1 µg/mL) | 8 µM | less than 10% | less than 10% | 2 µM | 2 µM | 2 µM | 4 µM | 2 µM (≈ 4.03 µg/mL) | 2 µM (≈ 4.03 µg/mL) |  | MIC after temperature treatment, 100 °C (E. coli ATCC25922): 2 µM (≈ 4.03 µg/mL); MIC in the presence of FeCl3 (E. coli ATCC25922): 2 µM; MIC in the presence of KCl (E. coli ATCC25922): 2 µM; MIC in the presence of MgCl2 (E. coli ATCC25922): 2 µM; MIC in the presence of NH4Cl (E. coli ATCC25922): 2 µM; MIC in the presence of NaCl (E. coli ATCC25922): 8 µM; MIC in the presence of ZnCl2 (E. coli ATCC25922): 2 µM; MIC, Control (E. coli ATCC25922): 2 µM (≈ 4.03 µg/mL); MIC, Control (pH 7) (E. coli ATCC25922): 2 µM |
| CO/N=C(\C(=O)N[C@@H]1C(=O)N2C(C(=O)O)=C(COC(C)=O)CS[C@H]12)c1csc(N)n1 [cefotaxime, reference compound] |  |  |  |  |  |  |  |  |  |  |  |  |  |  |  |  |  |  |  | 2 µM (≈ 0.911 µg/mL) |  |
| O=C(N[C@H](CO)[C@H](O)c1ccc([N+](=O)[O-])cc1)C(Cl)Cl [chloramphenicol, reference compound] |  |  |  |  |  |  |  |  |  |  |  |  |  |  |  |  |  |  |  | 8 µM (≈ 2.59 µg/mL) |  |
| O=C(O)c1cn(C2CC2)c2cc(N3CCNCC3)c(F)cc2c1=O [ciprofloxacin, reference compound] |  |  |  |  |  |  |  |  |  |  |  |  |  |  |  |  |  |  |  | 8 µM (≈ 2.65 µg/mL) |  |
| [H]/N=C(/N)N[C@H]1[C@H](O)[C@@H](O)[C@H](O[C@@H]2O[C@@H](C)[C@](O)(C=O)[C@H]2O[C@@H]2O[C@@H](CO)[C@H](O)[C@@H](O)[C@@H]2NC)[C@@H](N/C(N)=N\[H])[C@@H]1O [streptomycin, reference compound] |  |  |  |  |  |  |  |  |  |  |  |  |  |  |  |  |  |  |  | 2 µM (≈ 1.16 µg/mL) |  |
